According to US20240009201A1, “CYP11B2 BETA HYDROXYLASE INHIBITORS FOR HYPERTENSION” (MINERALYS THERAPEUTICS, INC., priority 2020, published 2024):
Where a name gives a salt, the structure may show the parent alone.

Experiments:
Type in all cases: in vivo
CYP11B2 = target: T1, CYP11B2 (Mus musculus, UniProt P15539); assay: Radio-telemetry blood pressure in low renin hypertension animal model (Ay mice); conditions: 3 mg/kg/day via mini-osmotic pump, 7 days, FIG. 14
T1 construct: from tissue; host or cells: living mice (endogenous enzyme); obese AY mice, Balb/C mice (Jackson Labs #000651)
T1 sequence (P15539 25-500): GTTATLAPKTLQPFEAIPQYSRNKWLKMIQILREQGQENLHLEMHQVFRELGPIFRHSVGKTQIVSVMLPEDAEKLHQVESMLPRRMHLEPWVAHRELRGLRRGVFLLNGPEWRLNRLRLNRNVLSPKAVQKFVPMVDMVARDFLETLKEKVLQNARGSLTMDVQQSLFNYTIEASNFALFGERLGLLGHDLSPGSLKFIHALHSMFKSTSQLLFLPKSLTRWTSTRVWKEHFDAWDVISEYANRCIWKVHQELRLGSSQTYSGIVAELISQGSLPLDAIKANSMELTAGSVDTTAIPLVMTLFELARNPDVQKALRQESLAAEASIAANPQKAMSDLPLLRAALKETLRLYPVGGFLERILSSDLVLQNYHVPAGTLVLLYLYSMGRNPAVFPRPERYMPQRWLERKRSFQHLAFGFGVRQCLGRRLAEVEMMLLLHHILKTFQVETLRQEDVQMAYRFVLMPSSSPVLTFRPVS
Description: Purpose: To determine whether CYP11B2 blockade (via aldosterone synthase inhibition) improves cardiovascular function in an animal model for low renin hypertension.
Animal Model: All experiments were conducted in 12-16-week-old obese AY female mice.
Telemetry Protocol: The telemetry protocol is illustrated in FIG. 13.
Treatment Protocol: Male and female Balb/C mice (Jackson Labs, Bar Harbor, ME, Catalog #000651) at 10 weeks of age were utilized for all studies. Mice were implanted with indwelling telemeters (carotid catheter) (DSI© Model #PA-C10, New Brighton, MN) under isoflurane anesthesia as previously described. Following a 7-day recovery period baseline BP measurements were consciously recorded for 7 days while mice were on normal salt diet (NS) (0.2% NaCl, Teklad #2918, Envigo, United Kingdom). Mice were then treated with the test article (compound of formula (A), LCI699 or CIN-107, calculated to deliver 3 mg/kg/day) infused via an implanted mini-osmotic pump for an additional 7 days.
Blood pressure measurement: For each protocol described in FIG. 13, 12 mice were used to record systolic, diastolic, mean arterial pressure heart rate and activity via radio-telemetry. Telemetry transmitters were implanted in the carotid artery at 12 weeks of age. After 2 weeks of recovery from surgery, baseline blood pressure was recorded for 7 consecutive days. Animals were then submitted to the treatment (compound of formula (A) HBr/LCI/CIN).
Quantification of the effects of compound of formula (A) HBr, LCI, CIN on the degree of RAAS activation: Blood was collected from all the treated mice to investigate the effects of the aldosterone synthase inhibitors on plasma aldosterone, Angiotensin II and indices of RAS activation via LC-MS/MS.

aldosterone synthase [1] = target: T2, aldosterone synthase (Homo sapiens, UniProt P19099); assay: Randomized, double-blinded, placebo-controlled SAD and MAD study (overall findings)
T2 construct: from tissue; host or cells: living human subjects (endogenous adrenal enzyme)
T2 sequence (P19099 25-503): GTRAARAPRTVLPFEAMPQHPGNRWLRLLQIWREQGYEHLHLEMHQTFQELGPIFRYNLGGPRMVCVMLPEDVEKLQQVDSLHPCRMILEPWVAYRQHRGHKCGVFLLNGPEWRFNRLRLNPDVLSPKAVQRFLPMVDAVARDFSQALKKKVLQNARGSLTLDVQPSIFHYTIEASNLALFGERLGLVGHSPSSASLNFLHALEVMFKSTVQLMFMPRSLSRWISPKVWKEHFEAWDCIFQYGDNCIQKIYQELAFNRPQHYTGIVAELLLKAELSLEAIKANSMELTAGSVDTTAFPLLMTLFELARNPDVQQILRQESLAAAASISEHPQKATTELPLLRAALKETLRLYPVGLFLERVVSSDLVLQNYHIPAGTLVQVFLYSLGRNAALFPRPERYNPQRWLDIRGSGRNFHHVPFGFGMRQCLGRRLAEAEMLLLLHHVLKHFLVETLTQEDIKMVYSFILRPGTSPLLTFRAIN
Excerpt: Aldosterone is produced by an aldosterone synthase, encoded by the gene CYP11B2. Aldosterone synthase catalyzes the final 3 steps in aldosterone synthesis, sequentially (1) from 11-deoxycorticosterone (11-DOC) to corticosterone, (2) from corticosterone to 18-OH-corticosterone, and (3) from 18-OH-corticosterone to aldosterone. […] 11β-hydroxylase catalyzes the conversion of 11-deoxycortisol to cortisol, and 11-deoxycorticosterone (11-DOC) to corticosterone.
Because 11-DOC is a substrate for both CYP11B1 and CYP11B2, use of a selective aldosterone synthase inhibitor which preserves the activity of CYP11B1 is important for preventing accumulation of the precursor 11-DOC.
(§1) Single Ascending Dose (SAD) and Multiple Ascending Dose (MAD) Study
(§2) A randomized, double-blinded, placebo-controlled study was conducted in which 116 patients were randomized and 87 received the compound of Formula A in the form of an HBr salt.

aldosterone synthase [2] = target: T2, aldosterone synthase; assay: Single ascending dose (SAD) study
Description: as §1, §2
Exposure above about 3-4 times the inhibition constant (Ki) was associated with duration of aldosterone suppression (FIG. 4).

aldosterone synthase [3] = target: T2, aldosterone synthase; assay: Multiple ascending dose (MAD) study
Description: as §1, §2

## CCC(=O)N[C@@H]1CCCc2c(-c3ccc4c(c3)CCC(=O)N4C)cncc21 [CIN-107]
CYP11B2
  mean arterial blood pressure (MAP): reduced MAP to a similar degree and to a value comparable to that seen in control mice

## N#Cc1ccc([C@H]2CCc3cncn32)c(F)c1 [LCI699]
CYP11B2
  mean arterial blood pressure (MAP): reduced MAP to a similar degree and to a value comparable to that seen in control mice

## CC(=O)N[C@H]1CC[C@H](NC(=O)CN2CCN(c3nncc(-c4ccc(C)cc4)n3)CC2)CC1 [Compound A HBr, N-[trans-4-(acetylamino)cyclohexyl]-2-{4-[5-(4-methylphenyl)-1,2,4-triazin-3-yl]piperazin-1-yl}acetamide monohydrobromide]
CYP11B2
  mean arterial blood pressure (MAP): reduced MAP to a similar degree and to a value comparable to that seen in control mice
Aldosterone synthase [1]; SAD/MAD study
  clinical laboratory, vital signs, ECGs or physical examination: No clinically significant findings
  deaths or serious adverse events (SAEs): No deaths or serious adverse events (SAEs) occurred
  effect on cortisol levels: no effect on cortisol levels
  hyperkalemia: No hyperkalemia was noted
Aldosterone synthase [1]; SAD/MAD study, 87 received the compound
  plasma aldosterone: rapid and durable reduction/suppression of plasma aldosterone
Aldosterone synthase [1]; compound groups vs placebo groups
  adverse events (AEs): comparable between the groups receiving the compound and placebo groups
Aldosterone synthase [2]; FIG. 2 (AUC-24)
  serum cortisol: no evidence of dose-dependent reduction in serum cortisol
Aldosterone synthase [2]; FIG. 4 (Cpu/Ki)
  exposure associated with duration of aldosterone suppression: 3-4 times the inhibition constant (Ki)
Aldosterone synthase [2]; FIG. 5
  duration of maximum aldosterone suppression: dose-dependent increase
Aldosterone synthase [2]; dose of 50 mg, FIG. 1 (AUC-24)
  reduction of serum aldosterone: 50%
Aldosterone synthase [3]; 360 mg dose level, FIG. 7
  11-DOC level: Accumulation of 11-DOC
Aldosterone synthase [3]; 360 mg dose, FIG. 6
  serum aldosterone during the washout phase: overshoot in serum aldosterone
Aldosterone synthase [3]; FIG. 9
  Plasma Renin Activity (PRA): dose-dependent increase
  dose giving 50% of maximum increase in Plasma Renin Activity (PRA): 40 mg
Aldosterone synthase [3]; FIG. 12
  benefits on renal tubular sodium excretion: seen at lower doses than are required for stimulation of renin and accumulation of 11-DOC
Aldosterone synthase [3]; all doses tested, FIG. 10
  serum K+: physiological, non-adverse, increase in K^+
Aldosterone synthase [3]; all doses tested, FIG. 11
  adrenocorticotropic hormone (ACTH)-stimulated aldosterone secretion: suppression of adrenocorticotropic hormone (ACTH)-stimulated aldosterone secretion
Aldosterone synthase [3]; day 7, FIG. 8
  dose-effect on duration of maximum aldosterone suppression: consistent with the SAD study
Aldosterone synthase [3]; multiple dosing
  drug accumulation: little drug accumulation

## CC(=O)N[C@H]1CC[C@H](NC(=O)CN2CCN(c3nncc(-c4ccc(C)cc4)n3)CC2)CC1 [compound of Formula (A), N-[trans-4-(acetylamino)cyclohexyl]-2-{4-[5-(4-methylphenyl)-1,2,4-triazin-3-yl]piperazin-1-yl}acetamide]
Aldosterone synthase [1]; in vivo
  dose range of aldosterone suppression without increase in 11-DOC or change in cortisol production (selectivity): wide does range at which aldosterone is suppressed without an increase in 11-DOC or change in cortisol production
